The text below walks through data of ChEMBL document CHEMBL1123322, “Muscarinic ganglionic stimulants: conformationally restrained analogues related to [4-[[N-(3-chlorophenyl)carbamoyl]oxy]-2-butynyl]trimethylammonium chloride” (1986).

Molecules are shown by their SMILES. The source made the active and inactive calls. The calls are words filed in the database; no cut-off is given here.

What all share (format): functional
The species named for experiment [1] is Rattus norvegicus. The experiment in a line: Compound was tested for the production of depressor effects in rat.
Experiment [2] is filed under the species Rattus norvegicus. The experiment is described as follows: Compound was tested for the production of piperizine sensitive pressor response.
Experiment [3] concerns the target T1, Muscarinic acetylcholine receptor M1 (Rattus norvegicus) (UniProt P08482).
T1 sequence (whole entry): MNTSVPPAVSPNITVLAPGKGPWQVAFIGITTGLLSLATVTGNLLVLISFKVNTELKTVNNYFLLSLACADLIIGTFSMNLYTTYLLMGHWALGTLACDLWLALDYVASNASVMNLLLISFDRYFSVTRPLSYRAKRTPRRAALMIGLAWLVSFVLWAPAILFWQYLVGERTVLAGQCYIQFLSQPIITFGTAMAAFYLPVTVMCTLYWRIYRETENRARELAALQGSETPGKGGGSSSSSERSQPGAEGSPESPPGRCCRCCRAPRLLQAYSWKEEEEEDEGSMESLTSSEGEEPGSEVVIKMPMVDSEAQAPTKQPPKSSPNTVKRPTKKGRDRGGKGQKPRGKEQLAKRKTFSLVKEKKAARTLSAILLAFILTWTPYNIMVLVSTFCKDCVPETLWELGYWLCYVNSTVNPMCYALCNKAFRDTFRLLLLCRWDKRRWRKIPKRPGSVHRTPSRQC
The experiment is described as follows: Muscarinic M1 receptor ganglion-stimulating activity as pressor responses in pithed rats; Inactive.

For experiment [4], the species on record is Rattus norvegicus. The experiment in a line: Compound was tested for the production of […] sensitive pressor response; Range 20-30 mmHg.

Regarding `C[N+]1(C)CCC=C(COC(=O)Nc2ccc(Cl)cc2)C1.[I-]`, the Activity in experiment [1] turned out to be 0.1 µM/kg.

On to `C[N+]1(C)CC=C(COC(=O)Nc2cccc(Cl)c2)CC1.Cc1ccc(S(=O)(=O)[O-])cc1`, for which the Activity was 0.1 µM/kg in experiment [2] and more than 2 µM/kg in experiment [1]. Besides, in experiment [3], the outcome was inactive.

Regarding `CN1CCC=C(COC(=O)Nc2ccccc2Cl)C1`, the outcome in experiment [3] was inactive. The compound also returned an Activity in experiment [1] of more than 2 µM/kg.

In the case of `CN1CC=C(COC(=O)Nc2cccc(Cl)c2)C1`, the “Mean arterial blood pressure” value in experiment [4] is reported as 20 mmHg.

`CN1CC=C(COC(=O)Nc2cccc(Cl)c2)CC1`: the outcome in experiment [3] was inactive. In experiment [1], this compound registered an Activity of more than 2 µM/kg.

On to `CN1CCC=C(COC(=O)Nc2cccc(Cl)c2)C1`, for which the outcome in experiment [3] was inactive. This compound had an Activity in experiment [1] of more than 2 µM/kg.

Consider `Cc1cccc(NC(=O)OCC2C=CCN(C)C2)c1` (stereo not given), for which the result in experiment [3] was inactive. Besides, the Activity in experiment [1] was more than 2 µM/kg.

As to `C[N+]1(C)CC=C(COC(=O)Nc2ccc(Cl)cc2)CC1.[Br-]`, the Activity in experiment [2] turned out to be 0.1 µM/kg.

As for `Cc1cccc(NC(=O)OCC2=CCN(C)CC2)c1`, in experiment [3], the result was inactive. The same compound had an Activity in experiment [1] of more than 2 µM/kg.

On to `C[N+]1(C)CCC(COC(=O)Nc2cccc(Cl)c2)CC1`, for which the “Mean arterial blood pressure” value in experiment [4] is 20 mmHg.

Compound `CN1CCC(COC(=O)Nc2cccc(Cl)c2)CC1` had an Activity in experiment [1] of 0.1 µM/kg.

Compound `C[N+]1(C)CC=C(COC(=O)Nc2cccc(Cl)c2)C1` came in with an Activity in experiment [1] of 3 µM/kg.

Turning to `CN1CCC=C(COC(=O)Nc2ccc(Cl)cc2)C1`, the result in experiment [3] was inactive. In experiment [1], this compound gave an Activity of more than 2 µM/kg.

On to `C[N+]1(C)CCC=C(COC(=O)Nc2cccc(Cl)c2)C1.[I-]`, for which the outcome in experiment [3] was inactive. This compound gave an Activity in experiment [1] of more than 2 µM/kg.

On to `CN1CC=C(COC(=O)Nc2ccc(Cl)cc2)CC1`, for which the result in experiment [3] was inactive. The Activity in experiment [1] is more than 2 µM/kg.
